Laboratory results taken from patent publication US20220280594A1, “APPLICATION OF POLYPEPTIDE OR DERIVATIVE THEREOF” (CHENGDU HUITAI BIOMEDICINE CO., LTD., priority 2019, published 2022).
Ends that are not written are not given here. PEG = not defined here

How the values were obtained:
N-cadherin = N-cadherin expression in SK-HEP-1 cells (ELISA); assay type: cell-based, human; conditions: SK-HEP-1, 10 μM, 24 hours, control group 1.12 ± 0.03
Experimental: (§1) SK-HEP-1 cells were cultured in vitro, cells in the logarithmic growth phase were collected, and the cells were seeded evenly in a 24-well plate at a density of 1-3×10^5 cells/well. The cells were cultured in a cell incubator for 4-5 h. PBS was added to the control group. PBS containing polypeptide or derivative thereof (N1-N12) was added to the treatment group. The final concentration of the polypeptide or derivative thereof in the well was 10 μM. After incubating for 24 hours, the cells were collected and the total protein was extracted. ELISA was used to detect the content of fibronectin in total protein.
The experimental method for testing the inhibition on the expression of N-cadherin in human liver adenocarcinoma cells (SK-HEP-1) by the polypeptide or derivative thereof (N1-N12) was as described in Example 19.

fibronectin = fibronectin expression in SK-HEP-1 cells (ELISA); assay type: cell-based, human; conditions: SK-HEP-1, 10 μM, 24 hours, control group 1.62 ± 0.09
Experimental: as §1

[1] = tested on: human lung cancer cells (95D); assay: scratch assay, migration of 95D cells; assay type: cell-based; conditions: 10 μM, 48 hours, control group 55.3 ± 3.19
Summary of the method: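 Confluent 95D monolayers were scratched, washed with PBS and cultured 48 h in 2% FBS medium containing peptide (10 μM) or PBS control, in triplicate wells. Scratch width was measured on images; migration rate (%) = (original width − current width)/original width × 100.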

[2] = tested on: human liver adenocarcinoma cells (SK-HEP-1); assay: transwell migration assay, SK-HEP-1 cells; assay type: cell-based; conditions: SK-HEP-1 transwell migration, 10 μM, 24 hours; control group 1 782 ± 108, control group 2 768 ± 86
Summary of the method: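 SK-HEP-1 cells in serum-free medium seeded in upper transwell chamber (2-3×10^5 cells/mL) over complete medium; after 4-5 h at 37 °C, 5% CO2, peptide added at 10 μM final in upper chamber. After 24 h, migrated cells fixed in methanol, crystal-violet stained, imaged and counted.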

vimentin = vimentin expression in SK-HEP-1 cells (ELISA); assay type: cell-based, human; conditions: SK-HEP-1, 10 μM, 24 hours, control group 1.2 ± 0.01
Experimental: as §1
The experimental method for testing the inhibition on the expression of vimentin in human liver adenocarcinoma cells (SK-HEP-1) by the polypeptide or derivative thereof (N1-N12) was as described in Example 19.

[3] = tested on: human non-small cell lung cancer cells (A549); assay: scratch assay, migration of A549 cells; assay type: cell-based; conditions: A549, 10 μM, 48 hours; control group 75.31 ± 8.19
Summary of the method: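 Confluent A549 monolayers in 24-well plates were scratched, washed with PBS, then cultured 48 h in 2% FBS medium with peptide at 10 μM or PBS control, triplicate wells. Scratch width measured from images; migration rate (%) = (original − current width)/original width × 100.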

[4] = tested on: human lung cancer cells (A549) subcutaneous xenograft; assay: lung cancer subcutaneous xenograft animal model, intratumoral injection; assay type: in vivo, mice (BALB/c-nu/nu); conditions: intratumoral 5 mg/kg once every other day, 10 days; for Weight of tumor (g) (mean ± SD): control 1.45 ± 0.15; for Volume of tumor (mm^3) (mean ± SD): control 1269.32 ± 115.39
Experimental: Experimental animals: 4-6 weeks old female immunodeficiency mice (BALB/c-nu/nu, Beijing Vital River Laboratory Animal Technology Co., Ltd.).
Subcutaneous xenograft animal model. The number of cells inoculated subcutaneously vin mice was about 2×10^6/200 μL. When the volume of the subcutaneous tumor was greater than 100 mm^3, the mice were randomly divided into groups and subjected to treatment. When the mass volume of the tumors in model control group reached 2000 mm^3 or the animal dies, the treatment ended. The animals were dissected, the tumors were taken out, and the weight and volume of the tumors were measured. During the period of the entire experiment, the mice were observed and the body weight was measured every other day.
The method used for the drug efficacy test in the animal model of the subcutaneous xenograft derived from lung cancer cells was as described in Example 5. The tumor cells were human lung cancer cells (A549), and the route of administration was intratumoral injection. There were two groups: the model control group and the polypeptide or its derivative treatment group (N1-N12). The drug dosage of the treatment group was 5 mg/kg, once every other day and the treatment time was 10 days.
The procedure of the efficacy test in this example, route and dosage of administration were the same as in Example 9. The peptides used in the experiment were N13-N32. The treatment time was 20 days.

Substance | Relative protein level (mean ± SD, P), N-cadherin (N-cadherin) | Relative protein level (mean ± SD, P), fibronectin (fibronectin) | Migration rate (%) (mean ± SD, P) [1] | Number of cells (mean ± SD, P), migrated cells [2] | Relative protein level (mean ± SD, P), vimentin (vimentin) | Migration rate (%) (mean ± SD, P) [3] | Weight of tumor (g) (mean ± SD) [4] | Volume of tumor (mm^3) (mean ± SD) [4]
N3: SEQ ID NO: 1 with deletion of position 18 and PEG modification at the amino terminal ({PEG}-YRVRFLAKENVTQDAED; reading uncertain) | 0.87 ± 0.09,* | 1.26 ± 0.09,** | 30.19 ± 5.91,** % | 112 ± 10,**** | 0.96 ± 0.05, ** | 51.86 ± 2.15,** % | 0.79 ± 0.18 g | 712.59 ± 200.32 mm^3
N4: SEQ ID NO: 1 with deletion of positions 15-18 and positions 1-3 (RFLAKENVTQD) | 0.93 ± 0.04,** | 1.23 ± 0.11,** | 31.65 ± 3.82,** % | 357 ± 21,*** | 0.95 ± 0.03, *** | 51.53 ± 3.72,* % | 0.63 ± 0.12 g | 740.79 ± 140.87 mm^3
N5: SEQ ID NO: 1 with addition of one amino acid at the carboxyl terminal and deletion of positions 1-3 (RFLAKENVTQDAEDNC) | 0.83 ± 0.04,*** | 1.3 ± 0.11,* | 28.27 ± 5.00,** % | 167 ± 12,**** | 0.87 ± 0.03, **** | 46.66 ± 5.92,** % | 0.69 ± 0.14 g | 738.11 ± 167.03 mm^3
N6: SEQ ID NO: 1 with deletion of four amino acids at the carboxyl terminal (positions 15-18) (YRVRFLAKENVTQD) | 0.83 ± 0.04,*** | 1.33 ± 0.04,** | 39.20 ± 4.24,** % | 157 ± 13,**** | 0.81 ± 0.03, **** | 40.67 ± 3.66,** % | 0.79 ± 0.18 g | 769.35 ± 155.34 mm^3
N7: SEQ ID NO: 1 with addition of one amino acid at the carboxyl terminal and substitution A15R (YRVRFLAKENVTQDREDNC) | 0.73 ± 0.06,*** | 1.36 ± 0.04,* | 35.72 ± 3.68,** % | 127 ± 16,**** | 1 ± 0.03, *** | 48.64 ± 3.10,** % | 0.81 ± 0.16 g | 741.86 ± 147.66 mm^3
N8: SEQ ID NO: 1 with deletion of positions 15-18 and positions 3, 4 and 11 (YRFLAKENTQD) | 0.7 ± 0.06,*** | 1.33 ± 0.11,* | 35.13 ± 4.45,** % | 139 ± 13,**** | 0.81 ± 0.03, **** | 32.62 ± 5.83,** % | 0.68 ± 0.11 g | 783.99 ± 69.19 mm^3
N9: SEQ ID NO: 1 with deletion of positions 15-18 and PEG modification at the amino terminal ({PEG}-YRVRFLAKENVTQD; reading uncertain) | 0.73 ± 0.04,*** | 1.33 ± 0.09,* | 32.27 ± 4.69,** % | 174 ± 15,**** | 1.03 ± 0.05, ** | 56.92 ± 4.49,** % | 0.72 ± 0.09 g | 781.14 ± 123.66 mm^3
N10: SEQ ID NO: 1 with deletion of positions 15-18 and 1-3 and PEG modification at the carboxyl terminal (RFLAKENVTQD-{PEG}; reading uncertain) | 0.69 ± 0.03,**** | 1.3 ± 0.05,** | 34.35 ± 5.74,** % | 54 ± 5,**** | 0.88 ± 0.06, *** | 26.86 ± 8.78,** % | 0.75 ± 0.07 g | 705.83 ± 182.18 mm^3
N11: SEQ ID NO: 1 with deletion of positions 15-18 and 1-3 and PEG modification at the amino terminal ({PEG}-RFLAKENVTQD; reading uncertain) | 0.73 ± 0.04,*** | 1.39 ± 0.01,* | 28.28 ± 3.68,*** % | 80 ± 6,**** | 0.94 ± 0.05, *** | 30.79 ± 6.74,** % | 0.73 ± 0.08 g | 756.57 ± 204.03 mm^3
N12: SEQ ID NO: 1 with deletion of position 18 and positions 1-2 (VRFLAKENVTQDAED) | 0.58 ± 0.03,*** | 1.23 ± 0.07,** | 28.72 ± 2.96,** % | 405 ± 49,** | 0.71 ± 0.03, **** | 20.05 ± 8.79,** % | 0.73 ± 0.09 g | 726.15 ± 144.96 mm^3
